{
  "source": "patent US20220291217A1",
  "about": "“GASTRIC CANCER MARKER AND EXAMINATION METHOD USING SAME” (JAPANESE FOUNDATION FOR CANCER RESEARCH, priority 2019, published 2022)",
  "system": "SNU-1 cells",
  "assay": "Staurosporine-induced apoptosis, Annexin V/7AAD flow cytometry",
  "assay_type": "cell-based, human",
  "conditions": "staurosporine 1.0 μM",
  "procedure": "Staurosporine (STS), a kinase inhibitor, was added to the above cells at 1.0 μM to induce apoptosis (FIG. 4b). Apoptosis was detected with Annexin V, 7AAD kit (BD Bioscience), and analyzed by flow cytometry, BD FACSCalibur (BD Bioscience).",
  "data": [
    {"smiles": "CN[C@@H]1C[C@H]2O[C@@](C)([C@@H]1OC)n1c3ccccc3c3c4c(c5c6ccccc6n2c5c31)C(=O)NC4", "note": "[staurosporine, Staurosporine]", "values": [
      {"measurement": "cells in which apoptosis is induced", "setting": "SNU-1 cells that do not express CA1, within 3 hours", "value": 19.3, "unit": "%"},
      {"measurement": "cells in which apoptosis was induced", "setting": "SNU-1 cells with forcedly expressed 3'-FLAG-tagged CA1", "value": 6.1, "unit": "%"}
    ]}
  ]
}
